From ChEMBL document CHEMBL3526122, “Identification of UDP-glucuronosyltransferases responsible for the glucuronidation of darexaban, an oral factor Xa inhibitor, in human liver and intestine” (Drug Metab Dispos, 2012) come the findings set out here.

The target in data set [1] is T1, UDP-glucuronosyltransferase 1A9 (Homo sapiens, UniProt O60656).
T1 sequence (O60656 whole entry): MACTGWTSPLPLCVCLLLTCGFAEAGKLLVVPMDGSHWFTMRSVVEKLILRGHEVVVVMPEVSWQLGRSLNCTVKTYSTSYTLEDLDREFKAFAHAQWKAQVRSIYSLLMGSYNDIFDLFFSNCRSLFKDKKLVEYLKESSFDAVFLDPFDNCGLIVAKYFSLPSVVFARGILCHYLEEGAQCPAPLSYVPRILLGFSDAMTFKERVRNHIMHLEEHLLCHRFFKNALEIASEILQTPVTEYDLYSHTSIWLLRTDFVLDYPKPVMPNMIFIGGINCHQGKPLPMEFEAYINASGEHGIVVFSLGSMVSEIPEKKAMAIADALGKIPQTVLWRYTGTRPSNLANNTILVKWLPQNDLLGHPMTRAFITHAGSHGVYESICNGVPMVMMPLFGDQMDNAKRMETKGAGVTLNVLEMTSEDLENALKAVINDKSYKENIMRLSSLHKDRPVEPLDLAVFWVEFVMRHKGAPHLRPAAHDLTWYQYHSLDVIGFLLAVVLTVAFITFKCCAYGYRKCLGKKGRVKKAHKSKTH
Put plainly: Activity of recombinant human UGT1A9 expressed in baculovirus-infected insect cells assessed as enzyme-mediated glucuronidation per mg of protein after 5 mins in presence of UDPGA. The class given is ADME.

The target in data set [2] is T2, UDP-glucuronosyltransferase 1A10 (Homo sapiens, UniProt Q9HAW8).
T2 sequence (Q9HAW8 whole entry): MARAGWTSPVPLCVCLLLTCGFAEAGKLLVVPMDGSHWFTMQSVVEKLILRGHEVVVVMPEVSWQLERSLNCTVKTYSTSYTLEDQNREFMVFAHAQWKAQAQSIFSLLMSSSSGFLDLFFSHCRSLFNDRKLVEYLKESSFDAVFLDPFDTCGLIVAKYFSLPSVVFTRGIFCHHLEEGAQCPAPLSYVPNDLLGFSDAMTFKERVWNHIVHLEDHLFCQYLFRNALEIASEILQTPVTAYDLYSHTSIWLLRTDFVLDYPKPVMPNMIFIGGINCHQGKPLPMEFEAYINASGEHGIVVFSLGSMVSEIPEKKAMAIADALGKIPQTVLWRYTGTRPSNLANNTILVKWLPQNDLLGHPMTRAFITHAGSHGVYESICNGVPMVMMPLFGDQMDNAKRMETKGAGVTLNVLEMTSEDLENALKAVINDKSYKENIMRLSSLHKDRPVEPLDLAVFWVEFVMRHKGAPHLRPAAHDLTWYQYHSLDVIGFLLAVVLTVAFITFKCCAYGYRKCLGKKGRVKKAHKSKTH
Put plainly: Ratio of Ki to Km for human recombinant UGT1A10 expressed in baculovirus-infected insect cells. The class given is ADME. Particulars: recombinant enzyme.

Data set [3] is described as follows: Drug metabolism in human intestinal microsomes assessed as glucuronidation per mg of protein after 5 mins by Michaelis-Menten plot analysis in presence of UDPGA. The data set is classed as ADME, Intestine, Microsome.
Data set [4] concerns the target T3, UDP-glucuronosyltransferase 2B7 (Homo sapiens, UniProt P16662).
T3 sequence (P16662 whole entry): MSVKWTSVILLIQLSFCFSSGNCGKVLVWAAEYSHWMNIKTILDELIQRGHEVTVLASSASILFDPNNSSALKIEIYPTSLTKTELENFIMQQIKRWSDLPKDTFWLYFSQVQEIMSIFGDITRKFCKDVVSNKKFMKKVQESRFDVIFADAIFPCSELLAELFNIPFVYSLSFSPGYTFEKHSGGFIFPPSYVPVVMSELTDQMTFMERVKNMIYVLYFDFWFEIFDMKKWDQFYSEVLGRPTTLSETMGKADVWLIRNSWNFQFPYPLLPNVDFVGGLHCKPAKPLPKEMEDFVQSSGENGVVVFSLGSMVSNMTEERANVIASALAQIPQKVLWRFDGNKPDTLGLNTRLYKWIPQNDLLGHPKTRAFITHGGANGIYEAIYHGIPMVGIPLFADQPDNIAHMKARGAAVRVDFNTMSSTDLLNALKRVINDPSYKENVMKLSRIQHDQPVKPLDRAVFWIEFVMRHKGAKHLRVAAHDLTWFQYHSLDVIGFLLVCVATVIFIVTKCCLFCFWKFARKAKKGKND
Put plainly: Activity of human recombinant UGT2B7 expressed in baculovirus-infected insect cells assessed as enzyme-mediated glucuronidation per mg of protein after 10 mins in presence of UDPGA. The data set is classed as ADME.

Data set [5] in a line: Drug metabolism in human liver microsomes assessed as glucuronidation after 10 mins by Michaelis-Menten plot analysis in presence of UDPGA and 0.5% fatty acid free BSA. The class given is ADME. The note with it: read-out: Km(unbound). Background: Microsomes from liver hold many membrane-bound enzymes, among them those of drug oxidation.
In data set [6] the test system is Liver microsome. Description: Drug metabolism in human liver microsomes assessed as glucuronidation per mg of protein after 10 mins by Michaelis-Menten plot analysis in presence of UDPGA and absence of fatty acid free BSA. The class given is ADME.
Data set [7] concerns Liver microsome. Put plainly: Drug metabolism in human liver microsomes assessed as glucuronidation per mg of protein after 10 mins by Michaelis-Menten plot analysis in presence of UDPGA and 0.1% fatty acid free BSA. The class given is ADME.
In data set [8] the target is T1, UDP-glucuronosyltransferase 1A9. Description: Activity of human recombinant UGT1A9 expressed in baculovirus-infected insect cells assessed as intrinsic clearance for enzyme-mediated glucuronide formation per mg of protein at 1 to 250 uM after 5 mins by Michaelis-Menten plot analysis in presence of UDPGA. The class given is ADME.
For data set [9], the target named is T4, UDP-glucuronosyltransferase 1A7 (Homo sapiens, UniProt Q9HAW7).
T4 sequence (Q9HAW7 whole entry): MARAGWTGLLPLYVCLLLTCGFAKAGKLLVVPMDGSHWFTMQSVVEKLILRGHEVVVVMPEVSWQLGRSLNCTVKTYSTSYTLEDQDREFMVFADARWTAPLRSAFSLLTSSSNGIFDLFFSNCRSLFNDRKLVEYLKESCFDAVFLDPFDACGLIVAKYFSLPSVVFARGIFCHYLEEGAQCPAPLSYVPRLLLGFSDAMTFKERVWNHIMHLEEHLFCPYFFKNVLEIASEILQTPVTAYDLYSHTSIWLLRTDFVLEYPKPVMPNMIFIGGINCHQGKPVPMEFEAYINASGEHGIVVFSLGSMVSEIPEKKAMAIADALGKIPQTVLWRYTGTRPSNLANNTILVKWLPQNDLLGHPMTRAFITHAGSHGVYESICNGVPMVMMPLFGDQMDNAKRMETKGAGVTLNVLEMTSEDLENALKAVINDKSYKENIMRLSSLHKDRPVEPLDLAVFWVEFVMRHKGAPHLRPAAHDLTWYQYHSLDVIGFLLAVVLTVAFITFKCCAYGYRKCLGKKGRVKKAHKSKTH
Put plainly: Activity of human recombinant UGT1A7 expressed in baculovirus-infected insect cells assessed as enzyme-mediated glucuronidation per mg of protein after 10 mins in presence of UDPGA. The class given is ADME.

In general, Vmax refers to the top rate of the reaction or transport when substrate is in excess. The term Km denotes the substrate concentration at which the rate is half of its maximum. On to `COc1ccc(C(=O)Nc2cccc(O)c2NC(=O)c2ccc(N3CCCN(C)CC3)cc2)cc1.O=C(O)CCC(=O)O`, for which the Drug metabolism was 2.43 nmol/min/mg in data set [1], less than 0.01 nmol/min/mg in data set [4] and 0.251 nmol/min/mg in [9]. Moreover, the Ratio in data set [2] was found to be 6.9. In addition, the Vmax was found to be 4.53 nmol/min/mg in data set [3], 3.75 nmol/min/mg in data set [6] and 3.25 nmol/min/mg in data set [7]. The Michaelis constant (Km) at 10 min in data set [5] came to 17.7 µM. Further, the clearance in data set [8] is 132 µL/min/mg.
